Tests used:
[1] = Stability of DAC, 2dC, and 5mC (LC-MS/MS); assay type: physicochemical; details: for Digest Buffers Stability (−70° C.) (35 Days) (%): digest buffer; for Stock Stability (27 Days) (%): Stock solution in water 1 mg/mL, −20° C. printed for DAC only
Method: (§1) Standards and quality control (QCs) samples were prepared by adding known concentrations of analytes into blank digest matrix (all solvents used during the DNA digest except for the enzymes). All digested DNA samples, standards and QCs were prepared for analysis by adding 20 μL internal standard (5AC-^15N4, 2dC-^13C^15N2 and 5mC-d3 in water) to 100 μL of sample and vortex-mix briefly. The internal standard in the range of 5 μL, 10 μL, or 15 μL to 20 μL, 25 μL, 30 μL, or 35 μL could be added to a sample. The sample could be in the range of 85 μL, 90 μL, or 95 μL to 100 μL, 105 μL, 110 μL, or 110 μL. The samples were injected onto a LC-MS system containing a Waters Acquity UPLC (Milford, Mass.) interfaced with an AB Sciex 5500 triple quadruple mass spectrometer (Foster City, Calif.). Chromatographic separation was achieved using Thermo Hypercarb porous graphite analytical column (100×2.1 mm, 5 μm, Waltham, Mass.) running isocratic with 10 mM ammonium acetate-acetonitrile-formic acid (70:30:0.1, v/v) with a flow rate of […]. The mass spectrometer was run in positive electrospray ionization mode with follow MRM transitions: DAC: 228.9→113.0, 2dC: 228.0→112.0, 5mC: 242.0→126.0, 5AC-^15N4 (internal standard): 249.0→117.0, 2dC-^13C^15N2 (internal standard) 230.8→115.0 and 5mC-d3 (internal standard) 245.8→129.0. The calibration range was 2-400 ng/mL for DAC, 5-1,000 ng/mL for 5mC, and 50-10,000 ng/mL for 2dC. All analytes were quantified using quadratic regression with 1/x^2 weighing.
A LC-MS/MS method was developed and validated to determine DAC, 2dC, and 5mC concentrations in DNA digest matrix (FIGS. 1-3). No major interferences were observed from blank matrix (FIGS. 1 and 2). Samples can be stored as the single dephosphorylated nucleotides for up to 35 days. The method has been applied in vitro to untreated (FIG. 4) and DAC treated cells (FIG. 5).

[2] = test system: DU145 human prostate cancer cells; test: DAC incorporation into genomic DNA of DU145 cells (LC-MS/MS); assay type: cell-based
Method: (§2) Genomic DNA was suspended in 50 μL of HPLC grade water, and digested with 4 Units of Nuclease P1 (Sigma Aldrich) at 65° C. for 10 minutes in a digestion buffer containing 0.04 mM DFAM, 3.25 mM ammonium acetate pH 5.0, 0.5 mM zinc chloride in a final volume of 100 μL. 20 μL of 100 mM Trizma base, pH 8.5 was added and this reaction was treated with 4 Units of Alkaline Phosphatase at 37° C. for 1 hour. Following incubation, 20 μL of 300 mM ammonium acetate, pH 5.0 and 6 μL of 0.25 mM DFAM/50 mM ethylenediaminetetraacetic acid was added to stop digestion.
as §1
DU145 prostate cancer cells were cultured in RPMI-1640, supplemented with 5% fetal bovine serum (Invitrogen). DAC was dissolved in DMSO and added to the culture at varying concentrations. The same volume of DMSO was added as a control. Cells were allowed to grow for 48 hr. An independent experiment was performed in three replicates. Following cell harvest, genomic DNA isolation, digestion to single dephosphorylated nucleotides according to our described protocols, DAC and 2dC content were determined using our LC-MS/MS analytical approach.

[3] = due to deamination to 5-aza-2′-deoxyuridine; cited from earlier work
[4] = test system: whole bone marrow cells; test: DAC and 5mC content in genomic DNA of bone marrow cells from mice treated with DAC; assay type: in vivo; details: DAC 1, 2 or 5 mg/kg intraperitoneal, 10 doses (FIG. 7)
Method: as §2
(§3) Standards and quality control (QCs) samples were prepared by adding known concentrations of analytes into blank digest matrix (all solvents used during the DNA digest except for the enzymes). All digested DNA samples, standards and QCs were prepared for analysis by adding 20 μL internal standard (5AC-^15N4, 2dC-^13C^15N2 and 5mC-d3 in water) to 100 μL of sample and vortex-mix briefly. The internal standard in the range of 5 μL, 10 μL, or 15 μL to 20 μL, 25 μL, 30 μL, or 35 μL could be added to a sample. […] All analytes were quantified using quadratic regression with 1/x^2 weighing. […]
(§4) DAC (1, 2 or 5 mg/kg) (Sigma-Aldrich) or vehicle was administered via daily intraperitoneal injection. […] DAC, 2dC, and 5mC were measured using our LC-MS/MS analytical approach.

[5] = test system: colon tissue; test: DAC and 5mC content in genomic DNA of colon cells from mice treated with DAC; assay type: in vivo; details: DAC 1, 2 or 5 mg/kg intraperitoneal, 10 doses (FIG. 7)
Method: as §2, §3, §4

[6] = DU145 cells treated with 500 nM DAC (FIG. 5)

SMILES | Reinjection Stability (5 Days) (5° C.) (%) ([1]; High QC) | Digest Buffers Stability (−70° C.) (35 Days) (%) ([1]; High QC) | Reinjection Stability (5 Days) (5° C.) (%) ([1]; Low QC) | Digest Buffers Stability (−70° C.) (35 Days) (%) ([1]; Low QC) | Stock Stability (27 Days) (%) [1] [%] | concentration of 2dC in digested genomic DNA [2, 6] [ng/mL] | concentration of 5mC in digested genomic DNA [2, 6] [ng/mL] | concentration of DAC in digested genomic DNA [2, 6] [ng/mL] | amount of DAC per thousand 2dC versus initial treatment dose ([2]; increasing doses of DAC, 48 hours, three replicates (FIG. 6)) | plasma half-life [3] [min] | DAC incorporation into genomic DNA (DAC per thousand 2dC) [4] | 5mC content (per thousand 2dC) relative to DAC incorporation [5] | DAC incorporation into genomic DNA (DAC per thousand 2dC) [5]
Nc1ccn([C@H]2C[C@H](O)[C@@H](CO)O2)c(=O)n1 [2dC, 2′-deoxycytidine] | 106.0 | 99 | 108.0 | 107.2 | 98.7 |  |  |  |  |  |  |  | 
Nc1ncn([C@H]2C[C@H](O)[C@@H](CO)O2)c(=O)n1 [DAC, 5-aza-2′-deoxycytidine] | 92.5 | 103.2 | 88.6 | 101.8 | 94.8 | 1250 | 27.4 | 2.8 | strong linear correlation | 15 to 25 | dose responsive increase in incorporation | inversely correlated with DAC incorporation | dose responsive increase in incorporation

Source: patent US11035850B2, “Quantitative determination of nucleoside analogue drugs in genomic DNA or RNA” (THE JOHNS HOPKINS UNIVERSITY, priority 2016, dated 2021)
